# Several values for one entry are separate records, joined by “and”; a condition that tells them apart may be missing. Identical values can stand only once. Marks after values point to notes of the source that are not given here.
# Experiments:
# [1] = Ligand protonation constants, potentiometric titration in NaCl; assay type: physicochemical
# Method: (§1) Potentiometric measurements were carried out at T = 298.1 ± 0.1 K in thermostatted cells. The setup consisted of a Metrohm model 888 Titrando apparatus controlled by Metrohm TiAMO 1.2 software equipped with a combined gel electrode (VWR model 662 1759). Estimated precision was 0.2 mV and 0.003 ml for the electromotive force and titrant volume readings, respectively. All the potentiometric titrations were carried out under magnetic stirring and bubbling purified presaturated N2 through the solution to exclude O2 and CO2.
# (§2) A 30 ml solution containing each ligand ([L] = 5 – 10 mM), NaCl and HCl was titrated with standard NaOH solutions. For the zinc(II)/ligand systems, the titrant solutions consisted of different amounts of ligand ([L] = 5 − 10 mM), zinc(II) ([Zn] = 0.5—5 mM) and a suitable amount of HCl and NaCl. All the measurements were carried out with an excess of the ligand, with respect to zinc(II) and at different zinc(II):ligand molar ratios. The selection of ratios investigated was determined by simulating titrations using Hyperquad Simulation and Speciation computer software (HySS)[41]. [Zn] and [L] were negligible compared to the background electrolyte concentrations. […] To account for the influence of zinc(II) hydrolysis in the zinc(II)/ligand systems, zinc(II) titrations were carried out separately at each ionic strength to determine the hydroxide constants so that these constants could be included in the equilibrium model used to refine the titration data. In these titrations, the zinc(II) concentration in the analyte solution was 0.7 mM.
# (§3) Before each experiment, independent titrations of strong acid solutions with standard base were carried out under the same medium and ionic strength conditions as the systems to be investigated, with the aim of determining the electrode potential (E^0’) using GLEE software. In this way, the pH scale used was the […], pH = -log [H]^+, where [H]^+ is the free proton concentration. For each titration, approximately 80 to 100 data points were collected. The equilibrium state during titrations was checked by confirming the time required to reach equilibrium.
# (§4) The software program Hyperquad was used to determine the equilibrium model and to calculate pKa and stability constants from the potentiometric data set[43]. For each set of pKa constants or zinc(II):ligand ratio studied, at least two repeat titrations were performed. The titration curves for each system were treated as a single set when refining the stability constants. This meant that the refinement procedure was run on both curves at the same time to derive a single set of constants. The error reported on the stability constants is the standard deviation given in the Hyperquad output file. Examples of Hyperquad files for the zinc(II)/PYR system are provided on the Zenodo repository (https://doi.org/10.5281/zenodo.4641710).
# (§5) The ionic strength dependence of the stability constants was studied with the modified version of the Extended Debye–Hückel equation[28]. The Monte Carlo method, as described by Hu et al.[43], was used to estimate 95% confidence intervals on the parameters of ionic strength dependence; for each species, predicted stability constants were resampled using an inverse of the cumulative normal distribution function to give sets of simulated data from which the unknown parameters were optimized. An example Excel calculation file for the application of the modified version of the Extended Debye–Hückel equation to the zinc(II)/PYR system (including the calculation of error on parameters of ionic strength dependence) has been uploaded to the Zenodo repository (https://doi.org/10.5281/zenodo.4641710).
# (§6) To quantify the improvement of using a direct vs. indirect method for studying ionic strength dependence, the Davies equation (Eq. 3) was applied to the zinc(II)/PYR data. Speciation calculations for a [Zn] = 10^–6 M and [L] = 10^–5 M system at infinite dilution were conducted with the aid of HySS. […]
# [2] = Zinc(II)-ligand stability constants, potentiometric titration in NaCl; assay type: binding; settings: for decrease in the 1:1 zinc(II) stability constant / decrease of the 1:1 zinc(II) stability constant: between 0.00 and 1.00 M NaCl
# Method: as §1, §2, §3, §4, §5, §6
# [3] = Davies equation on 0.05 M NaCl data
# [4] = Davies equation on 0.15 M NaCl data
# [5] = Davies equation on 0.30 M NaCl data
# [6] = Davies equation on 0.70 M NaCl data
# [7] = Davies equation on 1.00 M NaCl data
# [8] = intrinsic, modified Extended Debye–Hückel fit (direct), T = 298.1 K
# [9] = parameter of ionic strength dependence, NaCl, T = 298.1 K
# [10] = parameter of ionic strength dependence, NaCl
structure (smiles),measurement,setting,value
"Oc1ccccc1O [PYR, pyrocatecholate]","log β, 2H+ + L = H2L","[1]; 0.05 M NaCl, T = 298.1 K",21.36 ± 0.07
same,"log β, H+ + L = HL","[1]; 0.05 M NaCl, T = 298.1 K",12.16 ± 0.03
same,"log β, 2H+ + L = H2L","[1]; 0.15 M NaCl, T = 298.1 K",21.14 ± 0.02
same,"log β, H+ + L = HL","[1]; 0.15 M NaCl, T = 298.1 K",11.97 ± 0.01
same,"log β, 2H+ + L = H2L","[1]; 0.30 M NaCl, T = 298.1 K",21.06 ± 0.02
same,"log β, H+ + L = HL","[1]; 0.30 M NaCl, T = 298.1 K",11.94 ± .01
same,"log β, 2H+ + L = H2L","[1]; 0.70 M NaCl, T = 298.1 K",21.04 ± 0.02
same,"log β, H+ + L = HL","[1]; 0.70 M NaCl, T = 298.1 K",11.96 ± 0.01
same,"log β, 2H+ + L = H2L","[1]; 1.00 M NaCl, T = 298.1 K",20.88 ± 0.02
same,"log β, H+ + L = HL","[1]; 1.00 M NaCl, T = 298.1 K",11.79 ± 0.01
same,"log β0 (indirect), H2L",[1]; [3],21.61±0.07
same,"log β0 (indirect), HL-",[1]; [3],12.50±0.03
same,"log β0 (indirect), H2L",[1]; [4],21.48±0.02
same,"log β0 (indirect), HL-",[1]; [4],12.45±0.01
same,"log β0 (indirect), H2L",[1]; [5],21.45±0.02
same,"log β0 (indirect), HL-",[1]; [5],12.48±0.01
same,"log β0 (indirect), H2L",[1]; [6],21.4±0.02
same,"log β0 (indirect), HL-",[1]; [6],12.46±0.01
same,"log β0 (indirect), H2L",[1]; [7],21.18 ±0.02
same,"log β0 (indirect), HL-",[1]; [7],12.20±0.01
same,"logβ^0, 2H+ + L = H2L",[1]; [8],21.87±0.001 and 21.874 ± 0.001
same,"logβ^0, H+ + L = HL",[1]; [8],12.49 ±0.009 and 12.489 ± 0.009
same,"C, 2H+ + L = H2L",[1]; [9],0.296 ± 0.001
same,"C, H+ + L = HL",[1]; [9],0.183 ± 0.015
same,"log β, Zn2+ + 2L = ZnL2","[2]; 0.05 M NaCl, T = 298.1 K",16.66±0.04
same,"log β, Zn2+ + L = ZnL (1:1)","[2]; 0.05 M NaCl, T = 298.1 K",9.29±0.03
same,"log β, Zn2+ + 2L = ZnL2","[2]; 0.15 M NaCl, T = 298.1 K",15.93±0.02
same,"log β, Zn2+ + L = ZnL (1:1)","[2]; 0.15 M NaCl, T = 298.1 K",8.89±0.02
same,"log β, Zn2+ + 2L = ZnL2","[2]; 0.30 M NaCl, T = 298.1 K",15.32±0.01
same,"log β, Zn2+ + L = ZnL (1:1)","[2]; 0.30 M NaCl, T = 298.1 K",8.57±0.01
same,"log β, Zn2+ + 2L = ZnL2","[2]; 0.70 M NaCl, T = 298.1 K",15.09±0.01
same,"log β, Zn2+ + L = ZnL (1:1)","[2]; 0.70 M NaCl, T = 298.1 K",8.50±0.01
same,"log β, Zn2+ + 2L = ZnL2","[2]; 1.00 M NaCl, T = 298.1 K",14.59±0.01
same,"log β, Zn2+ + L = ZnL (1:1)","[2]; 1.00 M NaCl, T = 298.1 K",8.23±0.01
same,"log β0 (indirect), ZnL",[2]; [3],9.97±0.03 and 9.97
same,"log β0 (indirect), ZnL22-",[2]; [3],16.54±0.04 and 16.54
same,"log β0 (indirect), ZnL",[2]; [4],9.85±0.02 and 9.85
same,"log β0 (indirect), ZnL22-",[2]; [4],15.70±0.02 and 15.70
same,"log β0 (indirect), ZnL",[2]; [5],9.65±0.01 and 9.65
same,"log β0 (indirect), ZnL22-",[2]; [5],15.03±0.01 and 15.03
same,"log β0 (indirect), ZnL",[2]; [6],9.50±0.01 and 9.50
same,"log β0 (indirect), ZnL22-",[2]; [6],14.84±0.01 and 14.84
same,"log β0 (indirect), ZnL",[2]; [7],9.05 ±01 and 9.05
same,"log β0 (indirect), ZnL22-",[2]; [7],14.42±0.01 and 14.42
same,decrease in the 1:1 zinc(II) stability constant,[2],20%
same,decrease of the 1:1 zinc(II) stability constant,[2],1.67 logβ units
same,"logβ0, Zn2+ + 2L = ZnL2",[2]; [8],17.136±0.007 and 17.14±0.007 and 17.14
same,"logβ0, Zn2+ + L = ZnL (1:1)",[2]; [8],9.90±0.001 and 9.90
same,"C, Zn2+ + 2L = ZnL2",[2]; [10],-0.924±0.012
"O=C(O)CO [GLY, glycolic acid]","log β, H+ + L = HL","[1]; 0.05 M NaCl, T = 298.1 K",3.55 ± 0.01
same,"log β, H+ + L = HL","[1]; 0.15 M NaCl, T = 298.1 K",3.49 ± 0.01
same,"log β, H+ + L = HL","[1]; 0.30 M NaCl, T = 298.1 K",3.54 ± 0.01
same,"log β, H+ + L = HL","[1]; 0.70 M NaCl, T = 298.1 K",3.44 ± 0.01
same,"log β, H+ + L = HL","[1]; 1.00 M NaCl, T = 298.1 K",3.39 ± 0.01
same,"logβ^0, H+ + L = HL",[1]; [8],3.750^b
same,"C, H+ + L = HL",[1]; [9],0.070^b
same,"log β, Zn2+ + L = ZnL (1:1)","[2]; 0.05 M NaCl, T = 298.1 K",2.83±0.02
same,"log β, Zn2+ + L = ZnL (1:1)","[2]; 0.15 M NaCl, T = 298.1 K",2.10±0.01
same,"log β, Zn2+ + L = ZnL (1:1)","[2]; 0.30 M NaCl, T = 298.1 K",1.93±0.01
same,"log β, Zn2+ + L = ZnL (1:1)","[2]; 0.70 M NaCl, T = 298.1 K",1.25±0.03
same,stability lower than the equivalent 1:1 zinc(II)-PYR structure,[2]; 1:1 zinc(II) complex,approximately 7 logβ units
same,"log β, Zn2+ + L = ZnL (1:1)","[2]; 1.00 M NaCl, T = 298.1 K",0.83±0.04
same,decrease in the 1:1 zinc(II) stability constant,[2],~80%
same,decrease of the 1:1 zinc(II) stability constant,[2],2.19 logβ units
same,"logβ0, Zn2+ + L = ZnL (1:1)",[2]; [8],3.018±0.003
same,"C, Zn2+ + L = ZnL (1:1)",[2]; [10],-1.418±0.006

# From article PMC8373983, “Effect of salinity on the zinc(II) binding efficiency of siderophore functional groups and implications for salinity tolerance mechanisms in barley” (Scientific Reports, 2021)
